Patent publication US4743594A, “Antibiotic, antitumor compounds and their use” (priority 1984, dated 1988)
Converted amounts (≈) assume the structure as drawn.

What was measured:
[1] = test system: Sarcina lutea (ATCC 9341); assay: in-vitro antibacterial activity, agar dilution (MIC); type: cell-based; conditions: Micrococcus luteus, ATCC9341, MHA, 48 hrs, pH 7.4, read-out: Minimum Inhibitory Concentration (MIC)
Method: (§1) Antibiotics AT 2433 A1, AT 2433 A2, and AT 2433 B1 and AT 2433 B2 were tested in-vitro to determine anti-bacterial activity against a variety of gram-positive and gram-negative organisms
(§2) The in-vitro antibacterial activity tests were performed via conventional agar dilution methods in Muell-Hintom agar (MHA) at pH 7.4.

gram-positive bacteria = assay: antibacterial activity against gram-positive bacteria; type: cell-based
Method: as §1, §2

[2] = in-vivo antitumor activity against transplanted mouse P-388 leukemia (NCI test); conditions: mouse, in vivo; every 3rd day for 3 injections, ip; read-out: maximum tolerated dose (no day 5 or earlier deaths due to toxicity)
Method: (§3) Anti-tumor activity was determined by the standard National Cancer Institute test which was published in Cancer Chemothr. Rep. 3:1-103, 1972.
(§4) In the test, 10^6 cells (a lethal dose) per mouse of P-388 leukemia are administered interperitoneally on day 0. The test compounds are serially diluted (1:2, 1:4, 1:8, etc.) and each dilution is administered interperitoneally to the mice on days 1, 4 and 7.
(§5) ^1 Tumor inoculum: 10^6 ascites cells, ip
(§6) ^2 Host: CDF1 male mice
(§7) ^3 Treatment schedule: For AT 2433 A1 and B1, ip. days 1, 4
(§8) ^4 Tox: Toxic, i.e., <4/6 mice alive on day 5
(§9) ^5 MST: Median survived time in days
(§10) ^6 % T/C: (MSTTreated/MST-Control) × 100
(§11) ^7 Criteria: If % T/C >125, the test compound is considered to exhibi
(§12) significant antitumor activity at that dose.

P-388 leukemia = assay: as above; conditions: for MST (% T/C): >125 = significant antitumor activity; for in-vivo antitumor activity: P-388 leukemia in mice
Method: as §3, §4, §5, §6, §7, §8, §9, §10, §11, §12

E. Coli SS 1431 = assay: in-vitro antibacterial activity, agar dilution (MIC); type: cell-based; conditions: Escherichia coli, MHA, 48 hrs, pH 7.4
Method: as §1, §2

gram-negative bacteria = assay: antibacterial activity against gram-negative bacteria; type: cell-based
Method: as §1, §2

[3] = 0.5 mg/kg/inj, ip, days 1, 4 and 7
[4] = 0.5 mg/kg/inj, ip, days 1, 4 and 7, CDF1 male mice
[5] = 1 mg/kg/inj, ip, days 1, 4 and 7
[6] = 1 mg/kg/inj, ip, days 1, 4 and 7, CDF1 male mice
[7] = 2 mg/kg/inj, ip, days 1, 4 and 7
[8] = 2 mg/kg/inj, ip, days 1, 4 and 7, CDF1 male mice
[9] = 4 mg/kg/inj, ip, days 1, 4 and 7
[10] = 4 mg/kg/inj, ip, days 1, 4 and 7, CDF1 male mice
[11] = 8 mg/kg/inj, ip, days 1, 4 and 7
[12] = 8 mg/kg/inj, ip, days 1, 4 and 7, CDF1 male mice
[13] = 16 mg/kg/inj, ip, days 1, 4 and 7, CDF1 male mice
[14] = 16 mg/kg/inj, ip, days 1, 4 and 7

| SMILES | MIC [1] | antibacterial activity against gram-positive bacteria (gram-positive bacteria) | MST (% T/C) (P-388 leukemia; [3]) | MST (median survived time) (P-388 leukemia; [4]) | Avg. wt. change, gm on day 5 (P-388 leukemia; [3]) | Survivors day 5 (P-388 leukemia; [3]) | MST (% T/C) (P-388 leukemia; [5]) | MST (median survived time) (P-388 leukemia; [6]) | Avg. wt. change, gm on day 5 (P-388 leukemia; [5]) | Survivors day 5 (P-388 leukemia; [5]) | MST (% T/C) (P-388 leukemia; [7]) | MST (median survived time) (P-388 leukemia; [8]) | Avg. wt. change, gm on day 5 (P-388 leukemia; [7]) | Survivors day 5 (P-388 leukemia; [7]) | MST (% T/C) (P-388 leukemia; [9]) | MST (median survived time) (P-388 leukemia; [10]) | Avg. wt. change, gm on day 5 (P-388 leukemia; [9]) | Survivors day 5 (P-388 leukemia; [9]) | MST (% T/C) (P-388 leukemia; [11]) | MST (median survived time) (P-388 leukemia; [12]) | further results |
| --- | --- | --- | --- | --- | --- | --- | --- | --- | --- | --- | --- | --- | --- | --- | --- | --- | --- | --- | --- | --- | --- |
| CNC1COC(OCC2OC(n3c4c(Cl)cccc4c4c5c(c6c7ccccc7[nH]c6c43)C(=O)N(C)C5=O)C(O)C(O)C2OC)CC1O (stereo not drawn) [AT 2433 A1] | 0.25 mg/L (≈ 0.368 µM) | active | 150% | 13.5 days | -0.2 gm | 6/6 | 150% | 13.5 days | -0.7 gm | 6/6 | 172% | 15.5 days | -2.2 gm | 6/6 | 156% | 14.0 days | -2.3 gm | 5/6 | 194% | 17.5 days | MTD [2]: 2 mg/kg; increase in life span over controls (P-388 leukemia; 2 mg/kg given every 3rd day for 3 injections): 72%; Avg. wt. change, gm on day 5 (P-388 leukemia; [11]): -4.1 gm; Survivors day 5 (P-388 leukemia; [11]): 4/6; MST (% T/C) (toxicity flag) (P-388 leukemia; [13]): Tox (Toxic, i.e., <4/6 mice alive on day 5); MST (toxicity flag) (P-388 leukemia; [13]): Tox (Toxic, i.e., <4/6 mice alive on day 5); Avg. wt. change, gm on day 5 (P-388 leukemia; [14]): -3.2 gm; Survivors day 5 (P-388 leukemia; [14]): 2/6; in-vivo antitumor activity (P-388 leukemia): exhibited in-vivo antitumor activity |
| COC1C(COC2CC(O)C(N)CO2)OC(n2c3c(Cl)cccc3c3c4c(c5c6ccccc6[nH]c5c32)C(=O)N(C)C4=O)C(O)C1O (stereo not drawn) [AT 2433 A2] | 1 mg/L (≈ 1.5 µM) | active | – | – | – | – | – | – | – | – | – | – | – | – | – | – | – | – | – | – | – |
| CNC1COC(OCC2OC(n3c4ccccc4c4c5c(c6c7ccccc7[nH]c6c43)C(=O)N(C)C5=O)C(O)C(O)C2OC)CC1O (stereo not drawn) [AT 2433 B1] | 0.25 mg/L (≈ 0.388 µM) | active | 111% | 10.0 days | 3.0 gm | 5/5 | 117% | 10.5 days | 3.0 gm | 5/5 | 122% | 11.0 days | 0.0 gm | 6/6 | 133% | 12.0 days | -0.6 gm | 6/6 | 133% | 12.0 days | MIC (E. Coli SS 1431): 16 mg/L (≈ 24.8 µM); antibacterial activity against gram-negative bacteria (gram-negative bacteria): exhibit antibacterial activity; Avg. wt. change, gm on day 5 (P-388 leukemia; [11]): -0.3 gm; Survivors day 5 (P-388 leukemia; [11]): 6/6; MST (% T/C) (P-388 leukemia; [14]): 144%; MST (median survived time) (P-388 leukemia; [13]): 13.0 days; Avg. wt. change, gm on day 5 (P-388 leukemia; [14]): -0.7 gm; Survivors day 5 (P-388 leukemia; [14]): 6/6; in-vivo antitumor activity (P-388 leukemia): exhibited in-vivo antitumor activity; tumor growth inhibition (P-388 leukemia; highest dose tested, 16 mg/kg): inhibitory to tumor growth but less effective than AT 2433 A1 |
| COC1C(COC2CC(O)C(N)CO2)OC(n2c3ccccc3c3c4c(c5c6ccccc6[nH]c5c32)C(=O)N(C)C4=O)C(O)C1O (stereo not drawn) [AT 2433 B2] | 4 mg/L (≈ 6.34 µM) | active | – | – | – | – | – | – | – | – | – | – | – | – | – | – | – | – | – | – | – |
